Source: PubChem BioAssay AID2060907 (Molecular Pharmacology Branch, DTP, NCI, 2025)
pIC50: −log10 of the molar value. Values belong to the compound of their own block, whether it stands above or below them.

System: 388556-164-R-J1-PDC complex spheroid viability
Assay: Anticancer human tumor 388556-164-R-J1-PDC patient-derived colon adenocarcinoma cell line growth inhibition [RAS]
Conditions: for pIC50: curve of first compound; for viability, T/C: stronger effect = lower value
Procedure, shortened: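 Agents were tested in combination matrices in half-log decrements from a top concentration at or near clinical Cmax (10 microM if undetermined). Targets were multi-cell spheroids of tumour lines plus HUVEC and MSC stromal cells.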

[1] = second compound 0.00316 µM, first compound 0.0316 µM
[2] = second compound 0.00316 µM, first compound 0.1 µM
[3] = second compound 0.00316 µM, first compound 0.316 µM
[4] = second compound 0.00316 µM, first compound 1 µM
[5] = second compound 0.00316 µM, first compound 3.16 µM
[6] = second compound 0.00316 µM, first compound 10 µM
[7] = second compound 0.01 µM, first compound 0.0316 µM
[8] = second compound 0.01 µM, first compound 0.1 µM
[9] = second compound 0.01 µM, first compound 0.316 µM
[10] = second compound 0.01 µM, first compound 1 µM
[11] = second compound 0.01 µM, first compound 3.16 µM
[12] = second compound 0.01 µM, first compound 10 µM
[13] = second compound 0.0316 µM, first compound 0.0316 µM
[14] = second compound 0.0316 µM, first compound 0.1 µM
[15] = second compound 0.0316 µM, first compound 0.316 µM
[16] = second compound 0.0316 µM, first compound 1 µM
[17] = second compound 0.0316 µM, first compound 3.16 µM
[18] = second compound 0.0316 µM, first compound 10 µM
[19] = second compound 0.1 µM, first compound 0.0316 µM
[20] = second compound 0.1 µM, first compound 0.1 µM
[21] = second compound 0.1 µM, first compound 0.316 µM
[22] = second compound 0.1 µM, first compound 1 µM
[23] = second compound 0.1 µM, first compound 3.16 µM
[24] = second compound 0.1 µM, first compound 10 µM
[25] = second compound 0.316 µM, first compound 0.0316 µM
[26] = second compound 0.316 µM, first compound 0.1 µM
[27] = second compound 0.316 µM, first compound 0.316 µM
[28] = second compound 0.316 µM, first compound 1 µM
[29] = second compound 0.316 µM, first compound 3.16 µM
[30] = second compound 0.316 µM, first compound 10 µM
[31] = second compound 1 µM, first compound 0.0316 µM
[32] = second compound 1 µM, first compound 0.1 µM
[33] = second compound 1 µM, first compound 0.316 µM
[34] = second compound 1 µM, first compound 1 µM
[35] = second compound 1 µM, first compound 3.16 µM
[36] = second compound 1 µM, first compound 10 µM
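Further: spheroids exposed to compound for 7 days before readout.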
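Wherever viability, T/C is given: 100% = DMSO vehicle control luminescence.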

SMILES: CCC(CC)c1cc(NC2CCC(N)C2)n2nccc2n1 (stereo not given) + C=CC(=O)N1CCN(c2nc(OCC3CCCN3C)nc3c(F)c(-c4nc(N)cc(C)c4C(F)(F)F)c(Cl)cc23)C(C)C1
pIC50 (second compound 0.00316 µM): 5.56 | pIC50 (second compound 0.01 µM): 5.57 | pIC50 (second compound 0.0316 µM): 5.56 | pIC50 (second compound 0.1 µM): 5.61 | pIC50 (second compound 0.316 µM): 5.61 | pIC50 (second compound 1 µM): 5.63 | viability, T/C [1]: 98.2% | viability, T/C [2]: 98.6% | viability, T/C [3]: 106% | viability, T/C [4]: 93.9% | viability, T/C [5]: 43.6% | viability, T/C [6]: 29.6% | viability, T/C [7]: 97.2% | viability, T/C [8]: 109% | viability, T/C [9]: 102% | viability, T/C [10]: 96% | viability, T/C [11]: 42.6% | viability, T/C [12]: 27.8% | viability, T/C [13]: 96% | viability, T/C [14]: 104% | viability, T/C [15]: 106% | viability, T/C [16]: 101% | viability, T/C [17]: 43.3% | viability, T/C [18]: 29.9% | viability, T/C [19]: 97.5% | viability, T/C [20]: 95.9% | viability, T/C [21]: 102% | viability, T/C [22]: 98.2% | viability, T/C [23]: 36.8% | viability, T/C [24]: 26.5% | viability, T/C [25]: 104% | viability, T/C [26]: 112% | viability, T/C [27]: 109% | viability, T/C [28]: 105% | viability, T/C [29]: 34.6% | viability, T/C [30]: 28.5% | viability, T/C [31]: 98.6% | viability, T/C [32]: 100% | viability, T/C [33]: 109% | viability, T/C [34]: 111% | viability, T/C [35]: 30.7% | viability, T/C [36]: 27.6%

SMILES: CCN1CCN(Cc2ccc(Nc3ncc(F)c(-c4cc(F)c5nc(C)n(C(C)C)c5c4)n3)nc2)CC1 + C=CC(=O)N1CCN(c2nc(OCC3CCCN3C)nc3c(F)c(-c4nc(N)cc(C)c4C(F)(F)F)c(Cl)cc23)C(C)C1
pIC50 (second compound 0.00316 µM): < 6.00 | pIC50 (second compound 0.01 µM): < 6.00 | pIC50 (second compound 0.0316 µM): < 6.00 | pIC50 (second compound 0.1 µM): < 6.00 | pIC50 (second compound 0.316 µM): < 6.00 | pIC50 (second compound 1 µM): < 6.00 | viability, T/C (second compound 0.00316 µM, first compound 0.00316 µM): 111% | viability, T/C (second compound 0.00316 µM, first compound 0.01 µM): 104% | viability, T/C [1]: 93.1% | viability, T/C [2]: 88.8% | viability, T/C [3]: 104% | viability, T/C [4]: 98.3% | viability, T/C (second compound 0.01 µM, first compound 0.00316 µM): 97.5% | viability, T/C (second compound 0.01 µM, first compound 0.01 µM): 101% | viability, T/C [7]: 93% | viability, T/C [8]: 95.6% | viability, T/C [9]: 96.2% | viability, T/C [10]: 89.4% | viability, T/C (second compound 0.0316 µM, first compound 0.00316 µM): 100% | viability, T/C (second compound 0.0316 µM, first compound 0.01 µM): 101% | viability, T/C [13]: 95.4% | viability, T/C [14]: 93% | viability, T/C [15]: 98.3% | viability, T/C [16]: 87.8% | viability, T/C (second compound 0.1 µM, first compound 0.00316 µM): 106% | viability, T/C (second compound 0.1 µM, first compound 0.01 µM): 105% | viability, T/C [19]: 90.3% | viability, T/C [20]: 88.9% | viability, T/C [21]: 91.5% | viability, T/C [22]: 84.5% | viability, T/C (second compound 0.316 µM, first compound 0.00316 µM): 105% | viability, T/C (second compound 0.316 µM, first compound 0.01 µM): 100% | viability, T/C [25]: 98.2% | viability, T/C [26]: 89.7% | viability, T/C [27]: 91.8% | viability, T/C [28]: 84.3% | viability, T/C (second compound 1 µM, first compound 0.00316 µM): 102% | viability, T/C (second compound 1 µM, first compound 0.01 µM): 104% | viability, T/C [31]: 100% | viability, T/C [32]: 93% | viability, T/C [33]: 79.7% | viability, T/C [34]: 94%

More lines, main results first:

pIC50 (second compound 0.00316 µM): < 5.00 | pIC50 (second compound 0.01 µM): < 5.00 | pIC50 (second compound 0.0316 µM): < 5.00 | pIC50 (second compound 0.1 µM): < 5.00 | pIC50 (second compound 0.316 µM): < 5.00 | pIC50 (second compound 1 µM): < 5.00
SMILES: CC1(O)CCCC1n1c(=O)c(C(F)F)cc2cnc(NC3CCN(S(C)(=O)=O)CC3)nc21 (stereo not given) + C=CC(=O)N1CCN(c2nc(OCC3CCCN3C)nc3c(F)c(-c4nc(N)cc(C)c4C(F)(F)F)c(Cl)cc23)C(C)C1
viability, T/C [1]: 98.3% | viability, T/C [2]: 103% | viability, T/C [3]: 105% | viability, T/C [4]: 99.8% | viability, T/C [5]: 109% | viability, T/C [6]: 73.5% | viability, T/C [7]: 93.7% | viability, T/C [8]: 107% | viability, T/C [9]: 101% | viability, T/C [10]: 98.9% | viability, T/C [11]: 105% | viability, T/C [12]: 77.2% | viability, T/C [13]: 101% | viability, T/C [14]: 104% | viability, T/C [15]: 102% | viability, T/C [16]: 108% | viability, T/C [17]: 115% | viability, T/C [18]: 81% | viability, T/C [19]: 103% | viability, T/C [20]: 108% | viability, T/C [21]: 99.5% | viability, T/C [22]: 99.2% | viability, T/C [23]: 102% | viability, T/C [24]: 76% | viability, T/C [25]: 102% | viability, T/C [26]: 91.7% | viability, T/C [27]: 96.9% | viability, T/C [28]: 97.7% | viability, T/C [29]: 101% | viability, T/C [30]: 75.3% | viability, T/C [31]: 98.7% | viability, T/C [32]: 102% | viability, T/C [33]: 100% | viability, T/C [34]: 111% | viability, T/C [35]: 104% | viability, T/C [36]: 68.7%

pIC50 (second compound 0.00316 µM): 5.55 | pIC50 (second compound 0.01 µM): 5.42 | pIC50 (second compound 0.0316 µM): 5.19 | pIC50 (second compound 0.1 µM): 5.51 | pIC50 (second compound 0.316 µM): 5.48 | pIC50 (second compound 1 µM): 5.82
SMILES: Cc1nc(N2CCC3(CC2)COC(C)C3N)c(CO)nc1Sc1ccnc(N)c1Cl (stereo not given) + C=CC(=O)N1CCN(c2nc(OCC3CCCN3C)nc3c(F)c(-c4nc(N)cc(C)c4C(F)(F)F)c(Cl)cc23)C(C)C1
viability, T/C [1]: 88.3% | viability, T/C [2]: 83.7% | viability, T/C [3]: 72.8% | viability, T/C [4]: 58.3% | viability, T/C [5]: 49.2% | viability, T/C [6]: 45.3% | viability, T/C [7]: 94.7% | viability, T/C [8]: 82.4% | viability, T/C [9]: 75.7% | viability, T/C [10]: 61.7% | viability, T/C [11]: 49.7% | viability, T/C [12]: 43.7% | viability, T/C [13]: 86.1% | viability, T/C [14]: 79.9% | viability, T/C [15]: 73.3% | viability, T/C [16]: 63.3% | viability, T/C [17]: 55.3% | viability, T/C [18]: 47% | viability, T/C [19]: 95.5% | viability, T/C [20]: 83.5% | viability, T/C [21]: 70.5% | viability, T/C [22]: 60.9% | viability, T/C [23]: 49.6% | viability, T/C [24]: 40.6% | viability, T/C [25]: 97.7% | viability, T/C [26]: 78% | viability, T/C [27]: 70.9% | viability, T/C [28]: 63.8% | viability, T/C [29]: 54.1% | viability, T/C [30]: 36.9% | viability, T/C [31]: 91.2% | viability, T/C [32]: 92.5% | viability, T/C [33]: 68.5% | viability, T/C [34]: 56.7% | viability, T/C [35]: 42.3% | viability, T/C [36]: 39.8%

pIC50 (second compound 0.00316 µM): 6.74 | pIC50 (second compound 0.01 µM): 6.82 | pIC50 (second compound 0.0316 µM): 6.78 | pIC50 (second compound 0.1 µM): 6.64 | pIC50 (second compound 0.316 µM): 6.72 | pIC50 (second compound 1 µM): 6.62
SMILES: NC1c2ccccc2OC12CCN(c1cnc3c(N4CCCc5ncccc54)n[nH]c3n1)CC2 (stereo not given) + C=CC(=O)N1CCN(c2nc(OCC3CCCN3C)nc3c(F)c(-c4nc(N)cc(C)c4C(F)(F)F)c(Cl)cc23)C(C)C1
viability, T/C [1]: 63.9% | viability, T/C [2]: 55.6% | viability, T/C [3]: 45.8% | viability, T/C [4]: 39.4% | viability, T/C [5]: 44.6% | viability, T/C [6]: 38.8% | viability, T/C [7]: 67.4% | viability, T/C [8]: 55.4% | viability, T/C [9]: 39.1% | viability, T/C [10]: 39.7% | viability, T/C [11]: 44.2% | viability, T/C [12]: 38.8% | viability, T/C [13]: 71.1% | viability, T/C [14]: 54.1% | viability, T/C [15]: 44.1% | viability, T/C [16]: 38.7% | viability, T/C [17]: 39.8% | viability, T/C [18]: 32.9% | viability, T/C [19]: 70% | viability, T/C [20]: 59.5% | viability, T/C [21]: 45.7% | viability, T/C [22]: 40.5% | viability, T/C [23]: 40.1% | viability, T/C [24]: 35.6% | viability, T/C [25]: 69.2% | viability, T/C [26]: 54.6% | viability, T/C [27]: 45.3% | viability, T/C [28]: 41.8% | viability, T/C [29]: 40.6% | viability, T/C [30]: 35.5% | viability, T/C [31]: 70.3% | viability, T/C [32]: 58.3% | viability, T/C [33]: 45.9% | viability, T/C [34]: 40% | viability, T/C [35]: 34.4% | viability, T/C [36]: 28.1%
